Calls of active or inactive are those of the source.
How the values were obtained:
[1] = luciferase reporter signal suppression in cells – H4 neuroglioma cells, luminescence, dose response (AID 1990); type: functional, cell-based
[2] = test system: BJ; assay: BJ-TERT fibroblast viability loss – cell-based, RAS-independent, luminescence, dose response (AID 1933); type: functional; conditions: Homo sapiens
[3] = Luminescence Cell-Based Dose Response HTS to Identify Inhibitors of 5'UTR Stem-Loop Driven Prion Protein mRNA Translation in H4 Neuroglioblastoma Cells. [Related pubchem assays: 1827 (Project Summary), 1813 (Primary HTS)]; type: functional
[4] = alpha-synuclein stem-loop luciferase translation blockers – H4 neuroglioma cells, luminescence, confirmation (AID 1988); type: functional, cell-based
[5] = test system: BJ; assay: cells; type: functional, cell-based; conditions: Homo sapiens
[6] = biological target: Aryl hydrocarbon receptor (Homo sapiens, UniProt P35869); assay: Luminescence-based cell-based high throughput dose response assay for activators of the Aryl Hydrocarbon Receptor (AHR). [Related pubchem assays: 2796 (Primary screen (AHR activators in singlicate)), 2845 (Confirmation screen (AHR activators in triplicate)), 434939 (Counterscreen (PXR activators in triplicate)), 2804 (Summary (AHR activators))]; type: ADME
Sequence of Aryl hydrocarbon receptor (P35869 whole entry): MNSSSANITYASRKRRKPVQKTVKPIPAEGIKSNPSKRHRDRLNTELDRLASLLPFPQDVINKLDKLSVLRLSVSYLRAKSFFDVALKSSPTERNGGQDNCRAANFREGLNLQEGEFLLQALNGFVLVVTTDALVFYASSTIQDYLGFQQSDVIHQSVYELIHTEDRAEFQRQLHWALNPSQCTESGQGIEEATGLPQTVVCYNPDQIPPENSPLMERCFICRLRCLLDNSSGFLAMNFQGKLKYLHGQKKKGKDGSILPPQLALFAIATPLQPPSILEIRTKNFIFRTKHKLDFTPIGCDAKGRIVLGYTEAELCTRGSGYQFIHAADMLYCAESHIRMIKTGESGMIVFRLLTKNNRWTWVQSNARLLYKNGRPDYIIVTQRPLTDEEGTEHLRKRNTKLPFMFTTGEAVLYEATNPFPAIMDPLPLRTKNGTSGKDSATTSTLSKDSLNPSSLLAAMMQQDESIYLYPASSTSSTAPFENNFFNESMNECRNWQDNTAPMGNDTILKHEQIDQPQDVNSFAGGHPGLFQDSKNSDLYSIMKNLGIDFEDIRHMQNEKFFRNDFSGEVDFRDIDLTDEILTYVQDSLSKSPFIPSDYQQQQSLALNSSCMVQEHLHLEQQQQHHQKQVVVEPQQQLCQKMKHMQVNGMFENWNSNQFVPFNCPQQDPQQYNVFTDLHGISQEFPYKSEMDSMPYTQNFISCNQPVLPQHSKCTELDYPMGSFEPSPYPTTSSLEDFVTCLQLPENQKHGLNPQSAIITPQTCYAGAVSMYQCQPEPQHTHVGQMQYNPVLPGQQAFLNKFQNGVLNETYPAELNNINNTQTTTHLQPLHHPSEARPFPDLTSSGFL

[7] = test system: BJ; assay: BJ-TERT-LT-ST fibroblast viability loss – cell-based, RAS-independent, luminescence, dose response (AID 1935); type: functional; conditions: Homo sapiens;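 also: BJ fibroblasts immortalized with TERT plus LT and ST oncogenes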
[8] = DRD fibroblast viability loss – cell-based, non-viral oncogenic, luminescence, dose response (AID 1934); type: functional; conditions: Homo sapiens
[9] = THP-1 cell cytotoxicity, dose response, cytotoxicity control for non-replicating M. tuberculosis project (AID 489025); type: functional
[10] = HepG2 cell cytotoxicity, dose response, cytotoxicity control for non-replicating M. tuberculosis project (AID 489018); type: functional; conditions: Mycobacterium tuberculosis
[11] = biological target: T1, Bcl-2-related protein A1 (Mus musculus, UniProt Q07440); type: functional;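 also: confirmatory dose–response counterscreen on Bfl-1, used to check hits from a UBC13 polyubiquitin inhibitor campaign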
T1 sequence (Q07440 whole entry): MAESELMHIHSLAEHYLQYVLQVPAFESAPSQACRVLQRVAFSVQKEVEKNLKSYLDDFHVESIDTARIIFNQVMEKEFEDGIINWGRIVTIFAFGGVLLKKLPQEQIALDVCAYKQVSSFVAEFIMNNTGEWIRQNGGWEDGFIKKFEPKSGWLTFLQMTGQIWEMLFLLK

[12] = biological target: T2, Ubiquitin-conjugating enzyme E2 N (Homo sapiens, UniProt P61088); type: functional
T2 sequence (P61088 whole entry): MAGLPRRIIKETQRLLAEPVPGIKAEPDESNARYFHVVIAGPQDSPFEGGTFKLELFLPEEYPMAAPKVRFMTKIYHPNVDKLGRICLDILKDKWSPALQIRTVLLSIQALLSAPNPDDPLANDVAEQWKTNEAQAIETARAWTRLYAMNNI

[13] = Vero E6 cell cytotoxicity, dose response, cytotoxicity control for non-replicating M. tuberculosis project, secondary assay (AID 492998); type: functional, VeroE6; conditions: Vero C1008
[14] = biological target: T2, Ubiquitin-conjugating enzyme E2 N; type: functional; remark: listed apart in the source
[15] = HEK-293T viability loss after treatment – luminescence, T-cell screen hits, cytotoxicity control for TCR NF-kB inhibitor project, dose response (AID 489026); type: functional, cell-based;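 also: cells exposed to compound about 14 hours before the viability readout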
[16] = cells; type: functional
[17] = test system: CHO; assay: CHO cell viability loss, potency – luminescence, cytotoxicity control for TLR9-MyD88 binding inhibitor project, dose response (AID 588339); type: functional, cell-based, hamster; conditions: Cricetulus griseus;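 also: CHO cells stably coexpressing TLR9 and MyD88 fusions from primary screen; compound exposure lasted 48 hours before viability readout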
[18] = test system: BJ; assay: growth inhibition of engineered Ras-driven BJ cells – cell-based, alamar blue fluorescence, cherrypicked samples, dose response (AID 2631); type: functional; conditions: Homo sapiens;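 also: confirmatory dose-response assay in RAS-dependent BJ fibroblasts engineered with TERT, LT and ST, with cytotoxicity read by fluorescence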
[19] = biological target: Beta Lactamase (Pseudomonas aeruginosa, UniProt Q932Y6); assay: BLA reporter interference, concentration series – BLA reporter cells, FRET fluorescence, artefact control for TLR9-MyD88 binding inhibitor project, dose response (AID 588341); type: cell-based;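 also: cell based assay in CHO-K1 cells stably expressing beta-lactamase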
Sequence of Beta Lactamase (Q932Y6 whole entry): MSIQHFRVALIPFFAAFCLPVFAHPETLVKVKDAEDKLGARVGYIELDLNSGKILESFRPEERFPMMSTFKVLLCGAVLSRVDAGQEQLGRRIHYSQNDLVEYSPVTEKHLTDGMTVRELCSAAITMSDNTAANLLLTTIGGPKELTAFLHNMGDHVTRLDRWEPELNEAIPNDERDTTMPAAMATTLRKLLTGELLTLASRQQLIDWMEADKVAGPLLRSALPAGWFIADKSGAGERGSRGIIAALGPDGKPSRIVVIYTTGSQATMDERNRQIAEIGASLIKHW

[20] = test system: INS1; assay: INS-1E survival protection against cytokine death – cell-based, luminescence, retest, dose response (AID 449756); type: functional; conditions: Rattus norvegicus;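 also: cell death triggered by IL-1 beta plus TNF-alpha plus IFN-gamma mixture; protective hits raise ATP signal compared with cytokine alone wells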
[21] = biological target: T3, Mitochondrial peptide methionine sulfoxide reductase (Bos taurus, UniProt P54149); type: functional;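 also: absorbance read-out, biochemical high-throughput dose-response screen for MsrA inhibitors, confirmatory; recombinant bovine MsrA coupled to E. coli TrxB with NADPH and selenocystamine; potency is for inhibitors of MsrA activity on DMSO substrate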
T3 sequence (P54149 whole entry): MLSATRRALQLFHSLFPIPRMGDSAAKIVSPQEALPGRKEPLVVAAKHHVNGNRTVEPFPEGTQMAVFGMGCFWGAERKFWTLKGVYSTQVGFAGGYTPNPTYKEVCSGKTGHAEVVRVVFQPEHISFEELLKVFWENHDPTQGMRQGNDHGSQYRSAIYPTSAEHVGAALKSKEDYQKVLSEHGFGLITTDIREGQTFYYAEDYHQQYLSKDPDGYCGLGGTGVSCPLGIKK

[22] = blockers of HIV-1 envelope-mediated cell-cell fusion – cherry-pick, dose response (AID 652057); type: functional, cell-based
[23] = viability loss in CEM21 cells – cell-based, CellTiter-Glo luminescence, cherry-picked, cytotoxicity control for viral fusion inhibitor project, dose response (AID 652042); type: functional;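 also: potency for signal decrease meaning cytotoxicity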
[24] = blockers of HIV-1 ZM109 envelope-driven cell-cell fusion – HeLa effector, CEM target cells, luciferase, cherry-pick, dose response (AID 652058); type: functional, cell-based;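 also: luciferase signal from HIV-1 Env mediated cell-cell fusion of effector and target cells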
[25] = off-target signal loss in HeLa-CEM21 co-culture – HeLa F-luc CTL cells, cherry-picked, counter-screen for HIV-1 Env fusion inhibitor project, dose response (AID 652040); type: functional, cell-based;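 also: potency for signal decrease marking cytotoxic or nonspecific inhibition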
[26] = HIV-1 AD8 envelope cell-cell fusion blockers – cherry-pick, dose response (AID 652062); type: functional, cell-based;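 also: luciferase signal from cell-cell fusion driven by HIV-1 clade B AD8 Env; potency is for inhibitors of fusion seen as a drop in luminescence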
[27] = cells; type: functional, cell-based
[28] = cells; type: functional, cell-based; remark: listed apart in the source
[29] = biological target: T4, Caspase-3 (Homo sapiens, UniProt P42574); type: functional;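 also: Dose-response selectivity test against caspase-3 for candidate inhibitors of sentrin-specific proteases (SENPs)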
T4 sequence (P42574 whole entry): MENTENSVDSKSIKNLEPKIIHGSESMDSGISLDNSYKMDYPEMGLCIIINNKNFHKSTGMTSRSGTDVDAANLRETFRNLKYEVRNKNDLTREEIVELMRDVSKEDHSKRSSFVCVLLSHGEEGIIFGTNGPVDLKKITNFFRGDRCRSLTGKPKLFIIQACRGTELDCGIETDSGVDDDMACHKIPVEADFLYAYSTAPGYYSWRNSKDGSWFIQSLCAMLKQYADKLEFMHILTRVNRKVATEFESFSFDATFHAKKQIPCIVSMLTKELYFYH

[30] = biological target: T5, Sentrin-specific protease 7 (Homo sapiens, UniProt Q9BQF6); type: functional;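 also: Luminescence-based dose-response confirmation of ultra-high-throughput screening hits, measuring inhibition of SENP7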
T5 sequence (Q9BQF6 whole entry): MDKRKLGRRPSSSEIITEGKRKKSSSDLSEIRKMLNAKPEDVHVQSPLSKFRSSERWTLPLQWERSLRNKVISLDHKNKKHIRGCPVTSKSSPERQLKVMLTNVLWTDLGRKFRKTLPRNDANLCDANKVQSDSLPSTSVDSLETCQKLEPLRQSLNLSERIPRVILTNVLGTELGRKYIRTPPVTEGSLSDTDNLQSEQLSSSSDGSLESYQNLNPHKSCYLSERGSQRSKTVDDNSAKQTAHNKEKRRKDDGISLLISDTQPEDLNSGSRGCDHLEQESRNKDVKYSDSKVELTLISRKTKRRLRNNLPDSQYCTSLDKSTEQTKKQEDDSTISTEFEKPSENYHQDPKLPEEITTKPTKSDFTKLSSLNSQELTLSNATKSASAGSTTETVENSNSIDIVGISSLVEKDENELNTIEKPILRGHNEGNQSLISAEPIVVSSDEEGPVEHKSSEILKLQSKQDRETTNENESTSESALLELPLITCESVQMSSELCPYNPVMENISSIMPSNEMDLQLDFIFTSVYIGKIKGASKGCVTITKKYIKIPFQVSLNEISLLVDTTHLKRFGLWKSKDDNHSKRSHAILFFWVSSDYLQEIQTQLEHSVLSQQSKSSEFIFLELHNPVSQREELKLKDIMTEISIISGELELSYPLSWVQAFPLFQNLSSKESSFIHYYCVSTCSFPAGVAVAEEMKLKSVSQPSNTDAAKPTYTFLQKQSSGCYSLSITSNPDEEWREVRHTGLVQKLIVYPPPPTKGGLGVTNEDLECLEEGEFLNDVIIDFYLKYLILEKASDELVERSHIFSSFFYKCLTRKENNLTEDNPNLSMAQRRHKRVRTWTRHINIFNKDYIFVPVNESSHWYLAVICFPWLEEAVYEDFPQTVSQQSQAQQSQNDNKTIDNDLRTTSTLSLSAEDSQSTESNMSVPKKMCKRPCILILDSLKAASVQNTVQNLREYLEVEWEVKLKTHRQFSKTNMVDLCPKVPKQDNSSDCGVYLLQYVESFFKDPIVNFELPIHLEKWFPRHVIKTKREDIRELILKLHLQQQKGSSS

[31] = biological target: T6, Sentrin-specific protease 6 (Homo sapiens, UniProt Q9GZR1); type: functional;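 also: Luminescence-based dose-response confirmatory assay of SENP6 inhibition, following up an ultra-high-throughput screen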
T6 sequence (Q9GZR1 whole entry): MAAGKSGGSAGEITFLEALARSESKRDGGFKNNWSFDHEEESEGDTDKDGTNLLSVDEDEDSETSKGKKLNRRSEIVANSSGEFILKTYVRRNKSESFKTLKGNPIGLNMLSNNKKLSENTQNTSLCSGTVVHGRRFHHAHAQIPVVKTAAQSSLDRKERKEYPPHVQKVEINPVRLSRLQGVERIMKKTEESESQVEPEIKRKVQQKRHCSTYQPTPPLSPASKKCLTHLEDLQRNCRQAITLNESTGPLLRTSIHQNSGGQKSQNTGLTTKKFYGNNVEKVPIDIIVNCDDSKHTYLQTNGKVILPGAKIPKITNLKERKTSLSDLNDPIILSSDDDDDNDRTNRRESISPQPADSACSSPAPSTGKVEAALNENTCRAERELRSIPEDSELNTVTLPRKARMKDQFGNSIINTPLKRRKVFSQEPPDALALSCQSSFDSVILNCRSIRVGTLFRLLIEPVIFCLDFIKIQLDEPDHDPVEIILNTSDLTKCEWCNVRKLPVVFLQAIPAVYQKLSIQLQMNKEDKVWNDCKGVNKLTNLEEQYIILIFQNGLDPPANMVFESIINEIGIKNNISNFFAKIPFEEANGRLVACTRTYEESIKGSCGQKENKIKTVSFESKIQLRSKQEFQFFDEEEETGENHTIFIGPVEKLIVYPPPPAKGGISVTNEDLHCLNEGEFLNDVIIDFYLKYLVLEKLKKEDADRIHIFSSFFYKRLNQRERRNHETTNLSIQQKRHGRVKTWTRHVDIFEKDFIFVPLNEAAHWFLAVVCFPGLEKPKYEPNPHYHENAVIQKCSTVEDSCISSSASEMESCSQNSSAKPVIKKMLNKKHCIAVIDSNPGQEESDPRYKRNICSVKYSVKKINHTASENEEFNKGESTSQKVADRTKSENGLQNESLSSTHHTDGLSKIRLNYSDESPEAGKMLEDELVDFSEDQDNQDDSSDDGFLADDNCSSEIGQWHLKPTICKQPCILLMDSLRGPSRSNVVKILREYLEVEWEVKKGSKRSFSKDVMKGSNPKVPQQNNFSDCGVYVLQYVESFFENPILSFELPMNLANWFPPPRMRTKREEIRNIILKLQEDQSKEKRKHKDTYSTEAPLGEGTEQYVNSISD

[32] = biological target: T7, Sentrin-specific protease 8 (Homo sapiens, UniProt Q96LD8); type: functional;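 also: luminescence read-out of SENP8 inhibition, dose-response confirmation following an ultra-high-throughput screen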
T7 sequence (Q96LD8 whole entry): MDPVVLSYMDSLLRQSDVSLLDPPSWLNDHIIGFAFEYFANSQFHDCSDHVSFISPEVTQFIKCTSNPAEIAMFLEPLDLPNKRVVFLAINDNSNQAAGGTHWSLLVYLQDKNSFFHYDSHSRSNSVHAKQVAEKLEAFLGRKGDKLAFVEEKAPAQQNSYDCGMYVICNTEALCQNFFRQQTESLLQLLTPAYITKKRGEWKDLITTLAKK

[33] = biological target: Heat shock protein HSP 90-alpha (Homo sapiens, UniProt P07900); type: functional, organism-based
[34] = biological target: T4, Caspase-3; assay: inhibition of recombinant caspase-3 activity – biochemical, luminescence, set 2, selectivity assay for SENP protease inhibitor project, SAR follow-up (AID 588599); type: functional
[35] = biological target: T7, Sentrin-specific protease 8; assay: inhibition of sentrin protease 8 – biochemical, luminescence, set 2, SAR follow-up (AID 588601); type: functional
[36] = biological target: T5, Sentrin-specific protease 7; assay: inhibition of human SENP7 cleavage activity – biochemical, luminescence, set 2, SAR follow-up (AID 588600); type: functional
[37] = biological target: T6, Sentrin-specific protease 6; assay: inhibition of human SENP6 catalytic domain – biochemical, luminescence, set 2, SAR follow-up (AID 588598); type: functional

COc1ccc2nc(C)cc(N/N=C/c3ccc(F)cc3)c2c1
EC50 [1]: 8.44 µM (active) | EC50 [2]: 1.24 µM (inconclusive) | EC50 [3]: > 120 µM (not active) | EC50 [4]: 9.29 µM (active) | EC50 [5]: 5.09 µM (inconclusive) | EC50 [6]: > 0.377 µM (active) | EC50 [7]: 2.66 µM (inconclusive) | EC50 [8]: 4.92 µM (active) | CC50 [9]: 1.66 µM (active) | CC50 [10]: 15.2 µM (active) | IC50 [11]: 17 µM (active) | IC50 [12]: 11.8 µM (active) | CC50 [13]: 0.57 µM (active) | IC50 [14]: 10.1 µM (active) | IC50 [15]: > 80 µM (inactive) | IC50 [16]: 3.12 µM (active) | IC50 [17]: 6.2 µM (active) | EC50 [18]: 0.317 µM (active) | IC50 [19]: 2.13 µM (active) | AC50 [20]: 6.46 µM (active) | IC50 [21]: 12.8 µM (inactive) | AC50 [22]: 8.26 µM (active) | AC50 [23]: 2.65 µM (active) | AC50 [24]: 8.14 µM (active) | AC50 [25]: 6.09 µM (active) | AC50 [26]: 14.7 µM (active)

CCCCNc1nc(N)nc(-c2cc(Cl)ccc2O)n1
EC50 [27]: > 350 µM (not active) | EC50 [28]: 3.49 µM (active) | IC50 [29]: 44.1 µM (active) | IC50 [30]: 4.54 µM (active) | IC50 [31]: > 100 µM (inactive) | IC50 [32]: > 100 µM (inactive) | AC50 [33]: 4.87 µM (active)

COc1ccc2nc(NC(=O)c3ccccc3NS(=O)(=O)c3ccc4c(c3)OCCO4)sc2c1
IC50 [34]: > 99 µM (inactive) | IC50 [35]: > 99 µM (inactive) | IC50 [36]: > 99 µM (inactive) | IC50 [37]: > 99 µM (inactive)

Reference: ChEMBL document CHEMBL1201862, “PubChem BioAssay data set” (2004)
